Values of other authors, collected in patent US12107222B2, “Liquid electrolyte comprising organic carbonates and cyclic sulfoxides for applications in lithium secondary batteries” (Forschungszentrum Juelich GmbH, priority 2018, dated 2024).

Legend:
rat [1] = conditions: in vivo
human organism = conditions: classification in words
rat [2] = test system: rat
rat [3] = test system: rat; remark: listed apart in the source

Row | Structure (SMILES) | LD50, rabbit, dermal (rabbit) | LD50, rat, oral (rat [1]) | hazard classification (human organism) | also measured
1 | CCC1COC(=O)O1 (stereo not drawn) [1,2-Butylene carbonate] | LD50, rabbit, dermal: >2,000 mg/kg^[13] | LD50, rat, oral: >5,000 mg/kg | – | –
2 | O=S1(=O)CCCO1 [1,3-propane sultone] | – | – | carcinogenic and toxic | –
3 | O=C1OCCO1 [Ethylene carbonate] | – | – | – | LD50, rat, dermal (rat [2]): LD50, rat, dermal: >2,000 mg/kg; LC50, rat, inhalative, 7 h (rat [3]): LC50, rat, inhalative, 7 h: >1.268 mg/L^[12]
4 | CC1COC(=O)O1 (stereo not drawn) [Propylene carbonate] | LD50, rabbit, dermal: >2,000 mg/kg^[2] | LD50, rat, oral: >5,000 mg/kg | – | –
5 | [O-][S+]1CCCC1 [Tetrahydrothiophene-1-oxide] | – | – | – | LD50, mouse, intraperitoneal (mouse): LD50, mouse, intraperitoneal: 3,500
6 | O=c1occo1 [Vinylene carbonate] | – | – | toxic on contact with the skin | –
